Experimental data taken from patent publication US12077503B2, “Substituted cyclic amides and their use as herbicides” (FMC CORPORATION, priority 2015, dated 2024).

Assays:
Format in all cases: in vivo
rice (Oryra sativa) = experiment: Test B flooded paddy test; details: Oryza sativa, Flood, 250 g ai/ha; scale of 0 to 100 where 0 is no effect and 100 is complete control; read-out: Rice plant response rating
Procedure, shortened: (§1)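 Greenhouse paddy pots with 2-leaf stage plants received compound by direct addition to floodwater 3 cm deep, kept at that level. Scored visually at 13–15 d versus controls (0 no effect; 100 complete control).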

[1] = test system: ducksalad (Heteranthera limosa); experiment: Test B flooded paddy test; details: Heteranthera limosa, Flood, 250 g ai/ha; scale of 0 to 100 where 0 is no effect and 100 is complete control; read-out: Ducksalad plant response rating
Procedure, shortened: as §1

[2] = test system: barnyardgrass (Echinochloa crus-galli); experiment: Test B flooded paddy test; details: Echinochloa crus-galli, Flood, 250 g ai/ha; scale of 0 to 100 where 0 is no effect and 100 is complete control; read-out: Barnyardgrass plant response rating
Procedure, shortened: as §1

[3] = test system: sedge, umbrella (small-flower umbrella sedge, Cyperus difformis); experiment: Test B flooded paddy test; details: Cyperus difformis, Flood, 250 g ai/ha; scale of 0 to 100 where 0 is no effect and 100 is complete control; read-out: Sedge, Umbrella plant response rating
Procedure, shortened: as §1

[4] = test system: giant foxtail (Setaria faberii); experiment: Test A postemergence; details: Setaria faberi, post-emergence, 240 h
Procedure, shortened: (§2)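 Greenhouse, ~10 d after spray; visual injury vs untreated controls, 0 = no effect, 100 = complete control. Preemergence: directed soil spray over planted seeds. Postemergence: plants 2–10 cm, 1–2 leaf stage. Loam/sand blend. Compound in non-phytotoxic solvent with surfactant.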

corn (Zea mays) = experiment: Test A postemergence; details: Zea mays, post-emergence, 240 h
Procedure, shortened: as §2

[5] = test system: pigweed (Amaranthus retroflexus); experiment: Test A postemergence; details: Amaranthus retroflexus, post-emergence, 240 h
Procedure, shortened: as §2

[6] = test system: wheat (Triticum aestivum); experiment: Test A postemergence; details: Triticum aestivum, post-emergence, 240 h
Procedure, shortened: as §2

[7] = test system: Galium (catchweed bedstraw, Galium aparine); experiment: Test A postemergence; details: Galium, post-emergence, 240 h
Procedure, shortened: as §2

[8] = test system: blackgrass (Alopecurus myosuroides); experiment: Test A postemergence; details: Alopecurus myosuroides, post-emergence, 240 h
Procedure, shortened: as §2

[9] = test system: barnyardgrass (Echinochloa crus-galli); experiment: Test A postemergence; details: Echinochloa crus-galli, post-emergence, 240 h
Procedure, shortened: as §2

[10] = test system: ragweed (common ragweed, Ambrosia elatior); experiment: Test A postemergence; details: Ambrosia artemisiifolia, post-emergence, 240 h
Procedure, shortened: as §2

[11] = test system: ryegrass, Italian (Italian ryegrass, Lolium multiflorum); experiment: Test A postemergence; details: Lolium multiflorum, post-emergence, 240 h
Procedure, shortened: as §2

Kochia (Kochia scoparia) [12] = experiment: Test A postemergence; details: Bassia scoparia, post-emergence, 240 h
Procedure, shortened: as §2

Kochia (Kochia scoparia) [13] = experiment: Test A preemergence; details: Bassia scoparia, pre-emergence, 240 h, read-out: Plant response rating, Kochia
Procedure, shortened: as §2

O=C(Nc1cccc(F)c1F)[C@H]1C(=O)N(O)CC[C@@H]1c1ccc(F)cc1 [Compound 805]
0%: pest or weed control at 250 g/ha (rice (Oryra sativa)) | pest or weed control at 250 g/ha [1] | pest or weed control at 250 g/ha [2] | pest or weed control at 250 g/ha [3] | pest or weed control at 125 g/ha ([4]; 125 g ai/ha, postemergence, visual injury rating after approximately 10 d, read-out: Foxtail, Giant plant response rating (0 to 100 scale, 0 no effect, 100 complete control)) | pest or weed control at 31 g/ha ([4]; Postemergence, 31 g ai/ha, visual injury after approx. 10 d, 0 to 100 scale, 0 no effect, 100 complete control, read-out: Plant response rating, Foxtail, Giant) | plant injury at 125 g/ha (corn (Zea mays); 125 g ai/ha, postemergence, visual injury rating after approximately 10 d, read-out: Corn plant response rating (0 to 100 scale, 0 no effect, 100 complete control)) | Corn plant response rating (crop injury, 0 = no effect, 100 = complete kill) at 31 g/ha (corn (Zea mays); Postemergence, 31 g ai/ha, visual injury after approx. 10 d, 0 to 100 scale, 0 no effect, 100 complete control) | pest or weed control at 125 g/ha ([5]; 125 g ai/ha, postemergence, visual injury rating after approximately 10 d, read-out: Pigweed plant response rating (0 to 100 scale, 0 no effect, 100 complete control)) | pest or weed control at 31 g/ha ([5]; Postemergence, 31 g ai/ha, visual injury after approx. 10 d, 0 to 100 scale, 0 no effect, 100 complete control, read-out: Plant response rating, Pigweed) | plant injury at 125 g/ha ([6]; 125 g ai/ha, postemergence, visual injury rating after approximately 10 d, read-out: Wheat plant response rating (0 to 100 scale, 0 no effect, 100 complete control)) | plant injury at 31 g/ha ([6]; Postemergence, 31 g ai/ha, visual injury after approx. 10 d, 0 to 100 scale, 0 no effect, 100 complete control, read-out: Plant response rating, Wheat) | pest or weed control at 125 g/ha ([7]; 125 g ai/ha, postemergence, visual injury rating after approximately 10 d, read-out: Galium plant response rating (0 to 100 scale, 0 no effect, 100 complete control)) | pest or weed control at 31 g/ha ([7]; Postemergence, 31 g ai/ha, visual injury after approx. 10 d, 0 to 100 scale, 0 no effect, 100 complete control, read-out: Plant response rating, Galium) | pest or weed control at 125 g/ha ([8]; 125 g ai/ha, postemergence, visual injury rating after approximately 10 d, read-out: Blackgrass plant response rating (0 to 100 scale, 0 no effect, 100 complete control)) | pest or weed control at 31 g/ha ([8]; Postemergence, 31 g ai/ha, visual injury after approx. 10 d, 0 to 100 scale, 0 no effect, 100 complete control, read-out: Plant response rating, Blackgrass) | pest or weed control at 125 g/ha ([9]; 125 g ai/ha, postemergence, visual injury rating after approximately 10 d, read-out: Barnyardgrass plant response rating (0 to 100 scale, 0 no effect, 100 complete control)) | pest or weed control at 31 g/ha ([9]; Postemergence, 31 g ai/ha, visual injury after approx. 10 d, 0 to 100 scale, 0 no effect, 100 complete control, read-out: Plant response rating, Barnyardgrass) | pest or weed control at 125 g/ha ([10]; 125 g ai/ha, postemergence, visual injury rating after approximately 10 d, read-out: Ragweed plant response rating (0 to 100 scale, 0 no effect, 100 complete control)) | pest or weed control at 31 g/ha ([10]; Postemergence, 31 g ai/ha, visual injury after approx. 10 d, 0 to 100 scale, 0 no effect, 100 complete control, read-out: Plant response rating, Ragweed) | pest or weed control at 125 g/ha ([11]; 125 g ai/ha, postemergence, visual injury rating after approximately 10 d, read-out: Ryegrass, Italian plant response rating (0 to 100 scale, 0 no effect, 100 complete control)) | pest or weed control at 31 g/ha ([11]; Postemergence, 31 g ai/ha, visual injury after approx. 10 d, 0 to 100 scale, 0 no effect, 100 complete control, read-out: Plant response rating, Ryegrass, Italian) | pest or weed control at 125 g/ha (Kochia (Kochia scoparia) [12]; 125 g ai/ha, postemergence, visual injury rating after approximately 10 d, read-out: Kochia plant response rating (0 to 100 scale, 0 no effect, 100 complete control)) | pest or weed control at 31 g/ha (Kochia (Kochia scoparia) [12]; Postemergence, 31 g ai/ha, visual injury after approx. 10 d, 0 to 100 scale, 0 no effect, 100 complete control, read-out: Plant response rating, Kochia) | pest or weed control at 125 g/ha (Kochia (Kochia scoparia) [13]; 125 g ai/ha, preemergence, visual rating after approx. 10 d, 0 to 100 scale where 0 is no effect and 100 is complete control) | pest or weed control at 31 g/ha (Kochia (Kochia scoparia) [13]; Preemergence, 31 g ai/ha, 0 to 100 scale (0 no effect, 100 complete control))
